This note sets out measurements from patent US20250345383A1, “INTRANASAL ADMINISTRATION OF POLYSULFIDE” (The General Hospital Corporation, priority 2022, published 2025).

Data set [1] can be described thus: LC-MS/MS of ^34S-labeled GSSSG and sulfane sulfur species in CNS and plasma after intranasal GS^34SSG. It counts as in vivo, mouse. Particulars: after intranasal administration. The method, then: We used LC-MS/MS analysis to measure the amount of ^34S-labeled GSSSG ([^32S2, ^34S]GSSSG) in the CNS and plasma after intranasal administration of GS^34SSG, an isotope of endogenous GSSSG^9,35,36. The ratios of ^34S-labeled sulfane sulfur species ([^32S, ^34S]GSSH, [^32S, ^34S]cysteine hydropersulfide (CysSSH), and [^32S2, ^34S]cysteine trisulfide (CysSSSCys)) to endogenous sulfane sulfur species ([^32S2]GSSH, [^32S2]CysSSH, and […]) were also quantitatively evaluated. At 30 minutes after intranasal administration of 50 mg/kg of GS^34SSG, blood was obtained and four different central nervous tissues were harvested: olfactory bulb and forebrain; brainstem; cervical and thoracic spinal cord, and lumbar spinal cord. A total of 30 mg of each tissue was homogenized in 300 μl of ice-cold methanol solution containing 5 mM β-(4-hydroxyphenyl)ethyl iodoacetamide (HPE-IAM; Santa Cruz Biotechnology, Dallas, TX, USA). Twenty-five μl of plasma was mixed with 75 μl of ice-cold methanol solution containing 5 mM HPE-IAM. Samples were incubated for 20 minutes at 37° C. in the dark. After centrifugation (14,000×g for tissues, 1,870×g for plasma, 10 minutes, 4° C.), the supernatant was separated and diluted with 0.1% formic acid for LC-MS/MS analysis, and the pellet was sonicated to measure the protein concentration by BCA assay. The amount of [^32S2, ^34S]GSSSG was quantified in selective reaction monitoring (SRM) with precursor ion (647.14 m/z), product ion (389.1 m/z), and higher energy collisional dissociation (21 v). The ratios of [^32S, ^34S]GSSH to [^32S2]GSSH, [^32S, ^34S]CysSSH to [^32S2]CysSSH, and [^32S2, ^34S]CysSSSCys to [^32S3]CysSSSCys were calculated from their peak area measured by Dionex UltiMate 3000 RS UPLC-Orbitrap Exploris 480 mass spectrometer (Thermo Fisher Scientific, Waltham, MA, USA). In brief, samples were subjected to the UPLC system with a Hypersil Gold C-18 (100×2.1 mm, 3.0 μm, Thermo Fisher Scientific, Waltham, MA, USA) column and were then eluted by a linear methanol gradient of the mobile phase (0-90%, 15 minutes) in the presence of 0.1% formic acid at a flow rate of 0.2 ml/minute at 40° C. The raw data were analyzed by Compound Discoverer 3.3 software (Thermo Fisher Scientific, Waltham, MA, USA). The molecular weights of these sulfane sulfur species combined with HPE-IAM were determined based on previous reports^9,11,37.

Data set [2] relates to murine primary cortical neurons. As to the kind of experiment: Cell viability of murine primary cortical neurons incubated with MPP+ (crystal violet assay). The class given is cell-based, mouse. The note with it: MPP+ 50 μM, 24 hours. The method, then: Cell viability assays was performed to examine cell viabilities of SH-SY5Y cells or murine primary cortical neurons 24 h after the addition of MPP^+ (5 mM for SH-SY5Y, 50 μM for primary cortical neurons) with vehicle (PBS), Na2S (Sigma-Aldrich), Na2S3 (Dojindo Molecular Technologies, Inc), GSSSG (Glutathione trisulfide, Kyowa Hakko Bio Co., Ltd., Tokyo, Japan), LA (α-Lipoic acid, Sigma-Aldrich) or LASSS (α-Lipoic acid trisulfide, Kyowa Hakko Bio Co., Ltd., Tokyo, Japan). Cell viability was measured using the crystal violet assay.

For a further data set, the system named is MPTP-treated mice. The experiment in a line: MPTP-induced Parkinson's disease model in mice (tyrosine hydroxylase immunoblot). It counts as in vivo, mouse. Particulars: GSSSG 50 mg/kg intranasal on day 0 and every 12 hours days 1-6; harvested 7 days after MPTP. The method, then: Intermittent H2S Inhalation—Sulfide Pre-Conditioning (SPC) We previously reported that breathing H2S at 80 ppm markedly increases plasma and brain levels of H2S and thiosulfate, an oxidative product of H2S.^50,51 Male C57BL6/J mice breathed air alone and air mixed with 80 ppm H2S (Airgas Inc., Radnor, PA) for 4 h each day for 5 consecutive days in custom-made plastic chambers. The H2S breathing session was performed from 8 AM until 12 PM from Day 1 through Day 5 as previously described^51 (FIG. 1). H2S concentration, as well as FiO2, was continuously measured using a portable gas monitor (VENTIS MX4 Multi-Gas Monitor, Industrial Scientific Corporation, Oakdale. PA).
Male C57BL6/J and CD-1 mice received four intraperitoneal injections of MPTP (20 mg/kg) or saline every 2 h for a total of four doses of MPTP (total, 80 mg/kg) or equivalent amount of saline, as previously described 3. […] Then, tyrosine hydroxylase protein levels were detected by immunoblotting.
To determine the effects of polysulfide on the loss of tyrosine hydroxylase in the substantia nigra and striatum in mice treated with MPTP, we administered GSSSG (50 mg/kg) or saline via intranasal route immediately after the first and the third injection of MPTP on Day 0. […] Then, tyrosine hydroxylase protein levels were detected by immunoblotting.
For orientation: Immunoblotting shows a protein as a band on a membrane.

In the case of `N[C@@H](CCC(=O)N[C@@H](CSSSC[C@H](NC(=O)CC[C@H](N)C(=O)O)C(=O)NCC(=O)O)C(=O)NCC(=O)O)C(=O)O` [GSSSG, glutathione trisulfide], in data set [1], the “increase of levels of multiple sulfane sulfur species in the lumbar spinal cord” value is listed as 10 to 100 fold. Also, the “protection of murine primary cortical neurons from the effects of MPP+ treatment” value in data set [2] is “protected”. Also, the “tyrosine hydroxylase in the nigrostriatal region” value in the data set with MPTP-treated mice is “prevented the MPTP-induced decrease in tyrosine hydroxylase”.
